The results in this text go back to US6897227B2, “Prodrugs of proton pump inhibitors” (Winston Pharmaceuticals, Inc., priority 2002, dated 2005).

Data set [1] relates to histamine and carbachol-stimulated gastric acid secretion. Briefly: Inhibition of gastric acid secretion of the conscious male rat, oral administration. The conditions noted are these: sodium salt; for inhibition in vivo at 40 µmol/kg: 40 μmole/kg, read-out: % inhibition of gastric acid secretion between 3-5 hours after administration. The data set is classed as in vivo, rat (Sprague-Dawley). As to the method: Male rats (the Sprague-Dawley strain) were used in this experiment. OMEPRAZOLE sodium salt or LANSOPRAZOLE sodium salt (20 mg) was suspended in 10 ml of 0.1 N NaHCO3. 40 mg of each of the sodium salts of Compound 1, Compound 2, Compound 3, Compound 4, Compound 6 Compound 9, Compound 12, mixture (1:1) of Compound 16 and 17, mixture (1:1) of Compound 18 and 19, mixture (1:1) of Compound 20 and 21, mixture (1:1) of Compound 22 and 23, Compound 27, mixture (1:1) of Compound 34 and 35, and Compound 36 were dissolved in 10 ml of 50 mM sodium phosphate buffer, pH 7.4. The doses administered to the rats were as follows (μmole per kg body weight of the rat): OMEPRAZOLE (10 μmole/kg), LANSOPRAZOLE (10 μmole/kg), Compound 120 μmole/kg, Compound 2 40 μmole/kg, Compound 320 μmole/kg, Compound 420 μmole/kg, Compound 620 μmole/kg, Compound 940 μmole/kg, Compound 1240 μmole/kg, mixture (1:1) of Compound 16 and 17 40 μmole/kg, mixture (1:1) of Compound 18 and 19 40 μmole/kg, mixture (1:1) of Compound 20 and 21 40 μmole/kg, mixture (1:1) of Compound 22 and 23 40 μmole/kg, Compound 27 40 μmole/kg, mixture (1:1) of Compound 34 and 35 40 μmole/kg, and Compound 3640 μmole/kg. These drug solutions were orally administered.
(§1) 3 hours after administration the abdomen of the rat was incised and the pylorus was ligated under light ether anethesia. Histamine (30 mg/kg) and carbachol (30 μg/kg) were subcutaneously injected for acid stimulation. Immediately the abdomen was closed. Two hours later, the esophagus was ligated and the stomach was removed. The gastric juice was collected and acid output was quantified by titration using 0.1 N NaOH solution. As a control experiment, 1 ml of 50 mM phosphate buffer (pH 7.4) solution was orally administrated without any prodrug or proton pump inhibitory drug. Acid output was quantified by same method as described above, showing maximum histamine and carbachol-stimulated gastric acid secretion. Percentage inhibition was calculated from the fractional responses elicited by the test compound and a control experiment.

For data set [2] the following is noted: buffer.
Method: (§2) The stability of Compounds 1, 2, 3, 4 and 5 of the invention in aqueous solution (0.1 mg/mL) was investigated in Britton Robinson buffers of pH 3, pH 7, and pH 9, respectively. A solution of 0.1 mg/mL concentration of each compound in each buffer was prepared and the solutions were stored at 37° C. for 1 h and then the concentrations of test compounds were determined by HPLC.
A short description of data set [3]: Aqueous solubility (water / distilled water). The data set is classed as physicochemical. As to conditions: free carboxylic acids. The source says:
A further significant advantage of the proton pump inhibitor prodrugs of the present invention relative to the proton pump inhibitor prodrugs disclosed in U.S. Pat. No. 6,093,734, 6,559,167 and PCT Publication WO 00109498 and to all other prior art is their increased solubility.

The nature of data set [4]: Solubility in phosphate buffered saline buffer of pH 7.4 at 37° C. Format: physicochemical. The conditions noted are these: aqueous buffer, sodium salts, phosphate buffered saline buffer pH 7.4, read-out: Solubility at 37° C. Conc. The protocol: The solubility of the sodium salts of certain exemplary compounds of the present invention in a phosphate buffered saline buffer of pH 7.4 (50 mM sodium phosphate, 10 mM KCl, 0.1 M NaCl) and also in a more acidic Britton Robinson buffer of pH 3 (40 mM acetic acid, 40 mM phosphoric acid, 40 mM boric acid, 36 mM NaOH, and 19.6 mg/ml KCl) was also evaluated. […] The tested compounds were much less soluble little in the Britton Robinson buffer of pH 3, but still more soluble than the prior art compounds (a) through (f). This is understandable in view of the fact that in the buffer of pH 7.4 the compounds of the invention form a sodium salt, whereas in the buffer of pH 3 the compounds are less soluble free carboxylic acids. Thus, a solution of a sodium or other pharmaceutically acceptable salt of the compounds of the invention, or stated in an other way the compounds of the invention at pH 7 or above are highly soluble and therefore suitable for administration by intravenous injection.

Data set [5] can be described thus: Stability in plasma at 37° C. (gradient HPLC-UV), rat plasma. The data set is classed as in vitro ADME. The protocol: Exemplary test compounds (prodrugs) of the invention were incubated in plasma at 37° C., and the concentration of the compounds and also of the corresponding proton pump inhibitor compounds (PPI) were determined by a gradient HPLC-UV method. Although the half-lives of test compounds in plasma varies depending on their structure, nevertheless it is apparent that in plasma the compounds of the invention are converted into the corresponding proton pump inhibitor at a rate faster than the hydrolysis rate of the compound at neutral or near neutral pH.

A further data set has as its system gastric acid secretion. Briefly: Inhibition of gastric acid secretion in rat, intravenous administration. Format: in vivo. The conditions noted are these: 5 μmole/kg. As to the method: as §1
Inhibition of gastric acid secretion after intravenous administration of compounds of the invention was also examined. Lansoprazole sodium salt (20 mg) was dissolved in 40% hydroxypropyl-beta-cyclodextrin. The compounds of the invention used in this experiment were dissolved in phosphate buffered saline solution of pH 7.4. Each compound was injected intravenously at a dose of 5 μmole/kg or 10 μmole/kg (μmole per kg body weight of rat) as indicated in Table 4 below. Between 2 to 4 hours after injection gastric juice was collected, and the percentage of inhibition was determined as described above.

A short description of data set [6]: Stability in Britton Robinson buffers (hydrolysis of prodrug to PPI, HPLC). The conditions noted are these: Britton Robinson buffer, pH 7.
Method: as §2

Usually solubility stands for the concentration that dissolves in the medium under given conditions. For orientation: half-life means the time in which the quantity being followed falls by half.

A value given as a limit tells only on which side of the number the result lay.

Regarding `CCC(Oc1ccc(S(=O)(=O)n2c([S+]([O-])Cc3nccc(OCC(F)(F)F)c3C)nc3ccccc32)cc1)C(=O)O` (centres unmarked) [Compound 4, 2-(4-{2-[3-Methyl-4-(2,2,2-trifluoro-ethoxy)-pyridin-2-ylmethanesulfinyl]-benzimidazole-1-sulfonyl}phenoxy)butric acid], the “% inhibition of gastric acid secretion between 3-5 hours after administration” value in data set [1] (20 μmole/kg) is given as 60.9 ± 25.5%. Besides, in data set [2], the “Half-life of hydrolysis at pH 7 of the prodrug to the corresponding proton pump inhibitory drug” value is listed as “over 50 hours”.

With `Cc1c(OCC(F)(F)F)ccnc1C[S+]([O-])c1nc2ccccc2n1S(=O)(=O)c1ccc(OCC(=O)[O-])cc1.[Na+]` (centres unmarked) [Compound 2, (4-{2-[3-Methyl-4-(2,2,2-trifluoro-ethoxy)-pyridin-2-ylmethanesulfinyl]-benzimidazole-1-sulfonyl}-phenoxy)acetic acid sodium salt], the solubility in data set [3] was > 0.1 mg/mL; in data set [4] it was > 50 mg/mL. The half-life in data set [5] worked out at 18 min. Further, the inhibition in vivo at 40 µmol/kg in data set [1] was determined as 64.2 ± 11.3%. Moreover, the “% inhibition of gastric acid secretion between 2-4 hours after i.v. administration” value with gastric acid secretion is listed as 63.1 ± 31.7%. Further, in data set [6], the half-life at 0.1 mg/mL was > 50 h.

For `COc1ccc2c(c1)nc([S+]([O-])Cc1ncc(C)c(OC)c1C)n2S(=O)(=O)c1ccc(OCC(=O)[O-])cc1.[Na+]` (centres unmarked) [Compound 9, {4-[5-methoxy-2-(4-methoxy-3,5-dimethyl-pyridin-2-ylmethanesulfinyl)-benzimidazole-1-sulfonyl]-phenoxy}-acetic acid sodium salt], the solubility in data set [3] is > 0.1 mg/mL; in data set [4], > 30 mg/mL. Also, the inhibition in vivo at 40 µmol/kg in data set [1] amounted to 74.4 ± 25.1%.
